Laboratory results reported in patent US10174007B2, “Substituted 3-azabicyclo[3.1.0]hexanes as ketohexokinase inhibitors” (Pfizer Inc., priority 2015, dated 2019).

Columns and labels:
KHK-A = KHK-A (Homo sapiens (Human), UniProt P50053); assay: Assay D: KHK assay with 1 nM human KHK-A; conditions: read-out: IC50 (nM) Assay D 1 nM KHK-A, 8 mM fructose, 0.2 mM ATP, avg of (#) runs
From the text: (§1) A screening assay was developed for KHK involving a coupled enzyme system which used the product of the KHK reaction to drive an absorbance signal in kinetic mode. KHK takes fructose and ATP and converts it to F1P and ADP. ADP then serves as substrate to pyruvate kinase which converts PEP to pyruvate which is then reduced to lactate by lactate dehydrogenase with the concomitant oxidation of NADH to NAD+. The resulting depletion of NADH was monitored by measuring absorbance at 340 nm.
A fourth assay, referred to as Assay D, was performed using human KHK-A to assess the potency of compounds in inhibiting activity of this enzyme. […] Reaction rates and IC50 values were calculated as described above.

KHK-C [1] = molecular target: T1, KHK-C (Homo sapiens (Human), UniProt P50053); assay: Assay A: coupled-enzyme KHK absorbance assay, 10 nM KHK-C
T1 sequence (P50053 whole entry): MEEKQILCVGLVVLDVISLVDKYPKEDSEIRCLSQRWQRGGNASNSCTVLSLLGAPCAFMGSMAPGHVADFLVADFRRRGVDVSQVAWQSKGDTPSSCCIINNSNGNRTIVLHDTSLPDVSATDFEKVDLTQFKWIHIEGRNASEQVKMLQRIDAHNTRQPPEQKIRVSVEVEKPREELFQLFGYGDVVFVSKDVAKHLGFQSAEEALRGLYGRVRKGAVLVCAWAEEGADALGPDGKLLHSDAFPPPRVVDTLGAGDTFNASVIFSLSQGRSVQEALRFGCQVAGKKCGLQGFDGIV
From the text: as §1
Recombinant human KHK-C and KHK-A were expressed in E. coli as a His-tagged fusion protein and purified using Ni-NTA chromatography.
Compounds were prepared in DMSO as 4 mM stocks, diluted using an 11-point half-log scheme on a Biomek FX (Beckman Coulter), and incubated at rt for 30 minutes with the reaction mixture containing 50 mM HEPES, pH 7.4, 140 mM KCl, 3.5 mM MgCl2, 0.8 mM fructose, 2 mM TCEP, 0.8 mM PEP, 0.7 mM NADH, 0.01% Triton X-100, 30 U/mL pyruvate kinase-lactate dehydrogenase, and 10 nM purified KHK-C. The compound concentration in each well ranged from 1 nM to 100 μM. The reaction was initiated with the addition of 0.2 mM ATP. The absorbance was measured for 30 minutes on a SpectraMax reader (Molecular Devices) after ATP was added. The concentrations provided are based on the final mixture volume of 40 μL (referred to as the final concentration).
Controls: N8-(cyclopropylmethyl)-N4-(2-(methylthio)phenyl)-2-(piperazin-1-yl)pyrimido[5,4-d]pyrimidine-4,8-diamine at 2 μM final concentration was used as high percent effect (HPE) control, and 2.5% DMSO which was present in all reaction wells was used as zero percent effect (ZPE) control. Reaction rates were obtained for 300-1800 seconds time window in units of 1000*AU/min (absorbance unit per minute), and average values for ZPE and HPE controls from 16 wells each were calculated, AveZPE and AveHPE, respectively.
Percent inhibition (% inhibition) was calculated for each well using this equation:
For each compound tested, the IC50 provided is the average based on at least two separate assays conducted on separate days.

KHK-C [2] = molecular target: T1, KHK-C; assay: Assay B: KHK assay with 1 nM KHK-C, absorbance for 3 hours; conditions: read-out: IC50 (nM) Assay B 1 nM KHK-C; 1 nM KHK-C, 0.2 mM ATP, 3 hours; avg of (#) runs
From the text: as §1
The reaction was initiated with addition of 0.2 mM ATP, and the absorbance was monitored for 3 hours at 340 nm. Reaction rates and IC50 values were calculated as described above.

[3] = read-out: IC50 (nM) Assay A 10 nM KHK-C, 10 nM KHK-C, 0.8 mM fructose, 0.2 mM ATP, avg of (#) runs
[4] = read-out: IC50 (nM) Assay A (Table 4), 10 nM KHK-C, 0.8 mM fructose, 0.2 mM ATP, avg of (#) runs

KHK-A, sequence (P50053 other isoform, or with tags, fused parts or gaps): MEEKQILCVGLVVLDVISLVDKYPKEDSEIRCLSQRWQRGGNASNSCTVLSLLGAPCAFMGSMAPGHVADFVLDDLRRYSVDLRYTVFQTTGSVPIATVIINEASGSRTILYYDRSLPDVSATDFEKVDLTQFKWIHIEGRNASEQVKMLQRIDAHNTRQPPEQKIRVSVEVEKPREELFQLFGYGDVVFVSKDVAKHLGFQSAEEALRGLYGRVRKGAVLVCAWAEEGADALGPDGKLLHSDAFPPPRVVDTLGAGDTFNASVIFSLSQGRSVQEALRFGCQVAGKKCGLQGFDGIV

| IC50 (KHK-C [1]; [3]) [nM] | IC50 (KHK-C [1]; [4]) [nM] | Compound | other results |
| --- | --- | --- | --- |
| 11.1 | 11.1 | C[C@H]1CCN1c1nc(C(F)F)c(Cl)c(N2C[C@@H]3[C@@H](CC(=O)O)[C@@H]3C2)n1 [Example 40, [(1R,5S,6R)-3-{5-chloro-6-(difluoromethyl)-2-[(2S)-2-methylazetidin-1-yl]pyrimidin-4-yl}-3-azabicyclo[3.1.0]hex-6-yl]acetic acid] | IC50 (KHK-A): 37.9 nM; IC50 (KHK-C [2]): 3.7 nM |
| 17.8 | 17.8 | Cc1c(C(F)F)nc(N2CC[C@@H]2C)nc1N1C[C@@H]2[C@@H](CC(=O)O)[C@@H]2C1 [Example 43, [(1R,5S,6R)-3-{6-(difluoromethyl)-5-methyl-2-[(2S)-2-methylazetidin-1-yl]pyrimidin-4-yl}-3-azabicyclo[3.1.0]hex-6-yl]acetic acid] | IC50 (KHK-A): 48.6 nM; IC50 (KHK-C [2]): 8 nM |
| – | 25.3 | CC1CCCN1c1nc(N2C[C@@H]3[C@@H](CC(=O)O)[C@@H]3C2)cc(C(F)F)c1C#N (stereo partly drawn) [Example 38, {(1R,5S,6s)-3-[5-cyano-4-(difluoromethyl)-6-(2-methylpyrrolidin-1-yl)pyridin-2-yl]-3-azabicyclo[3.1.0]hex-6-yl}acetic acid] | – |
| – | 30 | N#Cc1c(C(F)(F)F)cc(N2C[C@@H]3[C@@H](CC(=O)O)[C@@H]3C2)nc1C1CCC1 [Example 31, {(1R,5S,6s)-3-[5-cyano-6-cyclobutyl-4-(trifluoromethyl)pyridin-2-yl]-3-azabicyclo[3.1.0]hex-6-yl}acetic acid] | – |
| – | 152 | C[C@H]1[C@H](O)CN1c1nc(C(F)F)cc(N2C[C@@H]3[C@@H](CC(=O)O)[C@@H]3C2)n1 [Example 14, [(1R,5S,6R)-3-{6-(difluoromethyl)-2-[(2S,3R)-3-hydroxy-2-methylazetidin-1-yl]pyrimidin-4-yl}-3-azabicyclo[3.1.0]hex-6-yl]acetic acid] | – |
| – | 24.8 | CC1CCCCN1c1nc(N2C[C@@H]3[C@@H](CC(=O)O)[C@@H]3C2)cc(C(F)(F)F)n1 (stereo partly drawn) [Example 39, {(1R,5S,6s)-3-[2-(2-methylpiperidin-1-yl)-6-(trifluoromethyl)pyrimidin-4-yl]-3-azabicyclo[3.1.0]hex-6-yl}acetic acid] | – |
| – | 111 | CCc1c(C(F)F)nc(N2C[C@@H](O)[C@@H]2C)nc1N1C[C@@H]2[C@@H](CC(=O)O)[C@@H]2C1 [Example 41, [(1R,5S,6R)-3-{6-(difluoromethyl)-5-ethyl-2-[(2S,3R)-3-hydroxy-2-methylazetidin-1-yl]pyrimidin-4-yl}-3-azabicyclo[3.1.0]hex-6-yl]acetic acid] | – |
| – | 259 | Cc1c(C(F)F)nc(N2C[C@@](C)(O)[C@@H]2C)nc1N1C[C@@H]2[C@@H](CC(=O)O)[C@@H]2C1 [Example 25, [(1R,5S,6R)-3-{6-(difluoromethyl)-2-[(2S,3R)-3-hydroxy-2,3-dimethylazetidin-1-yl]-5-methylpyrimidin-4-yl}-3-azabicyclo[3.1.0]hex-6-yl]acetic acid] | – |
| – | 58.3 | N#Cc1c(C(F)F)cc(N2C[C@@H]3[C@@H](CC(=O)O)[C@@H]3C2)nc1N1CCCC1 [Example 37, {(1R,5S,6s)-3-[5-cyano-4-(difluoromethyl)-6-(pyrrolidin-1-yl)pyridin-2-yl]-3-azabicyclo[3.1.0]hex-6-yl}acetic acid] | – |
| – | 238 | C[C@H]1[C@H](O)CN1c1nc(C(F)F)c(C2CC2)c(N2C[C@@H]3[C@@H](CC(=O)O)[C@@H]3C2)n1 [Example 45, [(1R,5S,6R)-3-{5-cyclopropyl-6-(difluoromethyl)-2-[(2S,3R)-3-hydroxy-2-methylazetidin-1-yl]pyrimidin-4-yl}-3-azabicyclo[3.1.0]hex-6-yl]acetic acid] | – |
| 170 | – | O=C(O)C[C@@H]1[C@H]2CN(c3cc(C(F)(F)F)nc(C4CCC4)n3)C[C@@H]12 [Example 6, {(1R,5S,6s)-3-[2-cyclobutyl-6-(trifluoromethyl)pyrimidin-4-yl]-3-azabicyclo[3.1.0]hex-6-yl}acetic acid] | – |

Second part, the compound before the results:

| Compound | IC50 (KHK-C [1]; [3]) [nM] | IC50 (KHK-C [1]; [4]) [nM] | other results |
| --- | --- | --- | --- |
| C[C@@H]1N(c2nc(C(F)F)c(Cl)c(N3C[C@@H]4[C@@H](CC(=O)O)[C@@H]4C3)n2)C[C@@]1(C)O [Example 36, [(1R,5S,6R)-3-{5-chloro-6-(difluoromethyl)-2-[(2S,3R)-3-hydroxy-2,3-dimethylazetidin-1-yl]pyrimidin-4-yl}-3-azabicyclo[3.1.0]hex-6-yl]acetic acid] | – | 103 | – |
| C[C@H]1[C@H](O)CN1c1nc(N2C[C@@H]3[C@@H](CC(=O)O)[C@@H]3C2)c(Cl)c(C(F)(F)F)n1 [Example 16, [(1R,5S,6R)-3-{5-chloro-2-[(2S,3R)-3-hydroxy-2-methylazetidin-1-yl]-6-(trifluoromethyl)pyrimidin-4-yl}-3-azabicyclo[3.1.0]hex-6-yl]acetic acid] | – | 6.4 | – |
| C[C@H]1[C@H](O)CN1c1cc(N2C[C@@H]3[C@@H](CC(=O)O)[C@@H]3C2)cc(C(C)(F)F)n1 [Example 34, [(1R,5S,6R)-3-{2-(1,1-difluoroethyl)-6-[(2S,3R)-3-hydroxy-2-methylazetidin-1-yl]pyridin-4-yl}-3-azabicyclo[3.1.0]hex-6-yl]acetic acid] | – | 331 | – |
| C[C@H]1[C@H](O)CN1c1cc(N2C[C@@H]3[C@@H](CC(=O)O)[C@@H]3C2)c(Cl)c(C(C)(F)F)n1 [Example 12, [(1R,5S,6R)-3-{3-chloro-2-(1,1-difluoroethyl)-6-[(2S,3R)-3-hydroxy-2-methylazetidin-1-yl]pyridin-4-yl}-3-azabicyclo[3.1.0]hex-6-yl]acetic acid] | 289 | – | – |
| COC(=O)C[C@@H]1[C@H]2CN(c3cc(C(F)(F)F)nc(N4CC[C@@H]4C)n3)C[C@@H]12 [Example 3, Methyl [(1R,5S,6R)-3-{2-[(2S)-2-methylazetidin-1-yl]-6-(trifluoromethyl)pyrimidin-4-yl}-3-azabicyclo[3.1.0]hex-6-yl]acetate] | – | – | IC50 (KHK-C [1]): 3510 nM |
| C[C@H]1CCN1c1nc(N2C[C@@H]3[C@@H](Cc4nnn[nH]4)[C@@H]3C2)cc(C(F)(F)F)n1 [Example 11, (1R,5S,6R)-3-{2-[(2S)-2-methylazetidin-1-yl]-6-(trifluoromethyl)pyrimidin-4-yl}-6-(1H-tetrazol-5-ylmethyl)-3-azabicyclo[3.1.0]hexane] | 866 | – | – |
| C[C@H]1[C@H](O)CN1c1nc(N2C[C@@H]3[C@@H](CC(=O)O)[C@@H]3C2)c(C2CC2)c(C(F)(F)F)n1 [Example 7, [(1R,5S,6R)-3-{5-cyclopropyl-2-[(2S,3R)-3-hydroxy-2-methylazetidin-1-yl]-6-(trifluoromethyl)pyrimidin-4-yl}-3-azabicyclo[3.1.0]hex-6-yl]acetic acid] | 111 | – | – |
| C[C@@H]1N(c2nc(N3C[C@@H]4[C@H](C3)[C@H]4CS(C)(=O)=O)c(Cl)c(C(F)(F)F)n2)C[C@@]1(C)O [Example 48, (2S,3R)-1-[5-chloro-4-{(1R,5S,6S)-6-[(methylsulfonyl)methyl]-3-azabicyclo[3.1.0]hex-3-yl}-6-(trifluoromethyl)pyrimidin-2-yl]-2,3-dimethylazetidin-3-ol] | – | 1360 | – |
| C[C@H]1[C@H](O)CN1c1nc(N2C[C@@H]3[C@@H](CC(=O)O)[C@@H]3C2)c(Cl)c(C(C)(F)F)n1 [Example 18, [(1R,5S,6R)-3-{5-chloro-6-(1,1-difluoroethyl)-2-[(2S,3R)-3-hydroxy-2-methylazetidin-1-yl]pyrimidin-4-yl}-3-azabicyclo[3.1.0]hex-6-yl]acetic acid] | – | 16.7 | – |
